The values that follow come from PubChem BioAssay AID220 (DTP/NCI, 2004).

The test concerns CD8F1 mice, subcutaneous mammary adenocarcinoma, T/C%. The experiment in a line: NCI In Vivo Anticancer Drug Screen. Data for tumor model Mammary Adenocarcinoma CD8F1 (subcutaneous) in CD8F1. The conditions noted are these: higher = larger tumour. The essentials:
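Transplantable tumors were established in mice, animals were dosed with compound or vehicle, and survival or tumor size was then measured in both groups. The treated result was divided by the control result.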

Each structure is given as a SMILES string. Inconclusive results are not listed.

In the case of `C[C@]12C=CC(=O)C=C1CC[C@@H]1[C@@H]2C(=O)C[C@@]2(C)[C@H]1CC[C@]2(O)C(=O)CO`, the T/C is 173 % of control (endpoint: mean tumor weight, dose: 25.0 mg/kg/injection, schedule: Q01DX009 (ip), vehicle: saline); 37 % of control (endpoint: mean tumor weight, dose: 37.5 mg/kg/injection, schedule: Q07DX006 (ip), vehicle: saline); 93 % of control (endpoint: mean tumor weight, dose: 75.0 mg/kg/injection, schedule: Q07DX005 (ip), vehicle: saline); 42 % of control (endpoint: mean tumor weight, dose: 75.0 mg/kg/injection, schedule: Q07DX006 (ip), vehicle: saline); 10 % of control (endpoint: mean tumor weight, dose: 75.0 mg/kg/injection, schedule: Q07DX007 (ip), vehicle: saline); 61 % of control (endpoint: mean tumor weight, dose: 100.0 mg/kg/injection, schedule: Q01DX009 (ip), vehicle: saline). For the same compound, the T/C is 95 % of control (endpoint: mean tumor weight, dose: 150.0 mg/kg/injection, schedule: Q07DX005 (ip), vehicle: saline); 23 % of control (endpoint: mean tumor weight, dose: 150.0 mg/kg/injection, schedule: Q07DX006 (ip), vehicle: saline); 9 % of control (endpoint: mean tumor weight, dose: 200.0 mg/kg/injection, schedule: Q07DX005 (ip), vehicle: saline); 6 % of control (endpoint: mean tumor weight, dose: 300.0 mg/kg/injection, schedule: Q07DX006 (ip), vehicle: saline); 21 % of control (endpoint: mean tumor weight, dose: 400.0 mg/kg/injection, schedule: Q07DX005 (ip), vehicle: saline); 1 % of control (endpoint: mean tumor weight, dose: 800.0 mg/kg/injection, schedule: Q07DX005 (ip), vehicle: saline). Moreover, the T/C (endpoint: median tumor weight (est.), dose: 100.0 mg/kg/injection, schedule: Q07DX005 (ip), vehicle: Klucel (hydroxypropylcellulose) (HPC)) is 33 % of control; the T/C (endpoint: median tumor weight (est.), dose: 200.0 mg/kg/injection, schedule: Q07DX005 (ip), vehicle: Klucel (hydroxypropylcellulose) (HPC)) was 26 % of control; the T/C (endpoint: median tumor weight (est.), dose: 400.0 mg/kg/injection, schedule: Q07DX005 (ip), vehicle: Klucel (hydroxypropylcellulose) (HPC)) was 15 % of control; the T/C (endpoint: median tumor weight (est.), dose: 800.0 mg/kg/injection, schedule: Q07DX005 (ip), vehicle: Klucel (hydroxypropylcellulose) (HPC)) was 13 % of control.

Regarding `ClC(Cl)(Cl)C1=NCc2nnn(Cc3ccccc3)c2N1`, the T/C is, setting by setting: (endpoint: median tumor weight (est.), dose: 12.5 mg/kg/injection, schedule: Q07DX005 (ip), vehicle: saline with Tween-80) 102 % of control; (endpoint: median tumor weight (est.), dose: 25.0 mg/kg/injection, schedule: Q07DX005 (ip), vehicle: saline with Tween-80) 66 % of control; (endpoint: median tumor weight (est.), dose: 100.0 mg/kg/injection, schedule: Q07DX005 (ip), vehicle: saline with Tween-80) 191 % of control; (endpoint: median tumor weight (est.), dose: 200.0 mg/kg/injection, schedule: Q07DX005 (ip), vehicle: saline with Tween-80) 107 % of control; (endpoint: median tumor weight (est.), dose: 400.0 mg/kg/injection, schedule: Q07DX005 (ip), vehicle: saline with Tween-80) 96 % of control.

With `CNC(=O)/C=C/C1=CN2C(=O)c3ccc(C)c(O)c3NC(OC)C2C1` (stereo unspecified), the T/C reads like this: (endpoint: median tumor weight change, dose: 0.03 mg/kg/injection, schedule: Q01DX001 (ip), vehicle: suspension in saline) 70 % of control; (endpoint: median tumor weight change, dose: 0.07 mg/kg/injection, schedule: Q01DX001 (ip), vehicle: suspension in saline) 51 % of control; (endpoint: median tumor weight change, dose: 0.31 mg/kg/injection, schedule: Q01DX001 (ip), vehicle: saline) 150 % of control; (endpoint: median tumor weight change, dose: 0.62 mg/kg/injection, schedule: Q01DX001 (ip), vehicle: saline) 83 % of control.

Consider `CC1=C(/C=C/C(C)=C/C=C/C(C)=C/CO)C(C)(C)CCC1`, for which the T/C by setting is: (endpoint: median tumor weight (est.), dose: 8.0 mg/kg/injection, schedule: Q07DX005 (ip), vehicle: saline with Tween-80) 195 % of control; (endpoint: median tumor weight (est.), dose: 32.0 mg/kg/injection, schedule: Q07DX005 (ip), vehicle: saline with Tween-80) 118 % of control.

As for `CC(C)NCC(O)COc1cccc2ccccc12` (stereo unspecified), the T/C reads like this: (endpoint: mean tumor weight, dose: 4.0 mg/kg/injection, schedule: Q07DX007 (ip), vehicle: Klucel (hydroxypropylcellulose) (HPC)) 61 % of control; (endpoint: mean tumor weight, dose: 8.0 mg/kg/injection, schedule: Q07DX007 (ip), vehicle: Klucel (hydroxypropylcellulose) (HPC)) 92 % of control; (endpoint: mean tumor weight, dose: 32.0 mg/kg/injection, schedule: Q07DX007 (ip), vehicle: Klucel (hydroxypropylcellulose) (HPC)) 88 % of control; (endpoint: mean tumor weight, dose: 64.0 mg/kg/injection, schedule: Q07DX007 (ip), vehicle: Klucel (hydroxypropylcellulose) (HPC)) 43 % of control.
